Assays:
[1] = system: rice trichoblasts (root hair cells); experiment: Calcium spiking (YC3.6 imaging) in rice trichoblasts (root hair cells); format: cell-based, Oryza sativa cv Nipponbare; conditions: 10^−5 M, FIG. 5, FIG. 6
Procedure: Mycorrhizal induced calcium responses were measured as described previously (14). Transgenic Oryza sativa Nipponbare lines carrying Yellow Cameleon 3.6 (YC3.6) FRET-based calcium sensor was used to detect calcium spiking. YC3.6 was imaged on a Nikon Eclipse Ti inverted microscope (Nikon, Japan) equipped with an OptoLED Illuminator (model OptoLED, Cairn Research Ltd, UK). YC3.6 was excited at a wavelength of 455 nm using a royal blue LED and was captured with a charge-coupled device (CCD) camera (model RETIGA-SRV, Qimaging, Canada). Emitted fluorescence was separated by an image splitter with a dichroic mirror (model Optosplit II, Cairn Research Ltd, UK) and then passed through a fluorescence filter set. Images were collected every 5 seconds with 1-second exposure and analyzed using MetaFluor (Molecular Devices, Sunnyvale, Calif., USA).
Both LCOs and COs are Required to Induce Calcium Spiking in Trichoblasts. Rhizobia colonize legumes by root hair cells (trichoblasts), whereas AM fungi colonize roots via non-root hair epidermal cells (atrichoblasts). Thus, these different root epidermal cell types may respond differently to COs and LCOs. To test this, we directly compared trichoblast and atrichoblast responses using high concentrations of CO4 in rice. Calcium oscillations observed in rice following treatments of CO4 were restricted to atrichoblasts, with no responses in trichoblasts even with CO4 treatments of 10^−5 M (FIG. 5). This preferential nature of rice atrichoblasts to respond to the AM signals is consistent with a preference for AM fungi to colonize the root via atrichoblasts (26). It is possible that either AM fungi produce signalling molecules other than S-LCO, NS-LCO and CO4 that induce calcium oscillations in rice trichoblasts, or that the mix of signalling molecules is important. To test this, we assessed induction of calcium oscillations by an equimolar mix of 10^−5 M S-LCO, NS-LCO, and CO4.

[2] = system: rice knock-out mutants of pollux and dmi3; experiment: Root architecture modification in rice Ospollux and Osdmi3 mutants; format: in vivo, Oryza sativa cv Nipponbare; conditions: 10^−8M; Ospollux and Osdmi3 mutants vs wild-type; FIG. 4
Procedure: (§1) Oryza sativa cv Nipponbare wild-type and Tos17 insertion lines in POLLUX (line NC6453) and DMI3 were used for root architecture experiments (12, 13). Seeds were prepared by sterilizing with 2% bleach for 20 minutes, followed by 3, 5-minute rinses with sterile water. The sterile seeds were then imbibed overnight. Seeds were then plated on damp germination paper in Petri plates under sterile conditions and germinated in the dark at 25 degrees for 7 days. Germinated rice plants were then plated on Fahraeus medium on germination paper and grown at 22 degrees under constant light. After 5 days the plants were treated with 10^−8M LCOs and COs for 24 hours by submersion and re-plated onto Fåhræus Medium 1.5% agar plates (0.132 g/L CaCl2, 0.12 g/L MgSO4.7H2O, 0.1 g/L KH2PO4, 0.075 g/L Na2HPO4.2H2O, 5 mg/L Fe-citrate, and 0.07 mg/L each of MnCl2.4H2O, CuSO4.5H2O, ZnCl2, H3BO3, and Na2MoO4.2H2O, adjusted to pH 6.5 before autoclaving). As all signals were suspended in 50% ethanol, the appropriate concentration of ethanol in sterile DI water served as a control. Root system architecture was assessed after 2 weeks.
Total lateral roots of rice were enumerated manually two weeks after application of 10^−8M COs and LCOs. As COs and LCOs were suspended in 50% ethanol, the control is sterile deionized water containing the appropriate amount of ethanol. […] Root system length was measured starting from the root-shoot junction to the tip of the longest root. The number of crown roots was assessed manually as those roots emerging from the root-shoot junction. […] Data were assessed for normality using the Shapiro-Wilk test (α=0.01), and statistical significance was determined using a paired t-test assuming unequal variances, or a Mann-Whitney-Wilcoxon Test if normality was not observed (α=0.05). […]
To assess the role of the common symbiotic pathway in regulating root architecture modifications in response to purified LCOs and COs, we quantified root responses to mycorrhizal signals in rice knock-out mutants of pollux (upstream of calcium spiking) and dmi3 (downstream of calcium spiking).

rice = experiment: Root architecture modification in wild-type rice after submersion treatment; format: in vivo, Oryza sativa cv Nipponbare; conditions: 10^−8M, 24 hours submersion, assessed after two weeks, FIG. 3
Procedure: as §1
Total lateral roots of rice were enumerated manually two weeks after application of 10^−8M COs and LCOs. As COs and LCOs were suspended in 50% ethanol, the control is sterile deionized water containing the appropriate amount of ethanol. Lateral roots were defined as large and fine lateral roots emerging from crown roots, as well as fine lateral roots emerging from large lateral roots. Root system length was measured starting from the root-shoot junction to the tip of the longest root. The number of crown roots was assessed manually as those roots emerging from the root-shoot junction. Root type characterizations were based upon the descriptions in Gutjahr et al. (19). Data were assessed for normality using the Shapiro-Wilk test (α=0.01), and statistical significance was determined using a paired t-test assuming unequal variances, or a Mann-Whitney-Wilcoxon Test if normality was not observed (α=0.05). All statistical analysis was conducted using the R software package (20).

M. truncatula = experiment: Lateral root emergence in M. truncatula; format: in vivo, Medicago truncatula; conditions: 10^−7 M; fold induction relative to the control; FIG. 7
Procedure: M. truncatula roots were treated with 10^−7 M CO4 or 10^−7 M NS-LCO and the effect on lateral root emergence was measured. The numbers in parentheses indicate the number of plants analyzed. The significance of the difference to the […] control plants, as measured using a t-test, is indicated. The treatments are measured as fold induction relative to the control. Error bars represent the standard error.
Accordingly, the disclosed method is limited in scope to treating non-leguminous plants, or seeds, seedlings or plant parts thereof.

Substance	calcium spiking in trichoblasts [1]	dependence of overall root length increase on POLLUX / DMI3 [2]	crown root growth (rice)	lateral root growth (rice)	root system length (rice)	lateral root emergence (M. truncatula)
LCO-IV (C16:0 or C18:1) [NS-LCO]	did not induce calcium spiking	dependent upon both POLLUX and DMI3	promoted	promoted	enhanced	promotion
LCO-IV (C16:0, S or C18:1, S) [S-LCO]	did not induce calcium spiking	–	promoted	promoted	–	–
